# According to patent US9708359B2, “Pyrrolopyrimidine nucleosides and analogs thereof” (Chimerix, Inc., priority 2015, dated 2017):
# pEC50: −log10 of the molar value. Like-named read-outs stand apart in the source and are kept apart here.
# How the values were obtained:
# [1] = tested on: MCMV; test: Plaque-reduction assay for MCMV; assay type: cell-based; conditions: MEF
# Description: Plaque-Reduction Assays for MCMV:
# Mouse embryo fibroblast cells were prepared from mouse embryos using a procedure similar to that outlined above for HFF cells and suspended in tissue culture media as described above and seeded into plates and incubated. The medium was aspirated and the cell monolayers were infected with MCMV. The infected cells were then incubated at 37° C. for 1 h and the plates were rocked occasionally to ensure that the media covered the entire monolayer. Compounds were serially diluted in tissue maintenance cell culture media described above and the solutions were added to the infected monolayers. Infected monolayers were incubated for 7 d and then stained with Neutral Red solution as described above. Plaques were enumerated and EC50 values were interpolated from the experimental data by standard methods.
# Mouse embryo fibroblast cells were prepared from mouse embryos using a procedure similar to that outlined above for HFF cells and suspended in tissue culture media as described above and seeded into 12 well plates and incubated at 37° C. for 24 h. The medium was aspirated and the cell monolayers were infected with the Smith strain of MCMV in a final volume of 0.2 mL in each of triplicate wells. The infected cells were then incubated at 37° C. for 1 h and the plates were rocked occasionally to ensure that the media covered the entire monolayer. […]
# [2] = in vitro; conditions: human
# [3] = tested on: YFV; test: microbe, parasite or virus in culture; assay type: cell-based; conditions: Yellow fever virus, Vero
# [4] = Parallel cytotoxicity assay in MEF cells; assay type: cell-based; conditions: mouse, parallel to MCMV assay
# Description: (§1) Every antiviral assay included a parallel cytotoxicity assay with the same cells used for each virus, the same cell number, the same drug concentrations, and the same incubation times to provide the same drug exposure. To ensure that the cytotoxicity of all compounds could be compared directly, a standard neutral red uptake cytotoxicity assay for all compounds in confluent HFF cells with a 7 d incubation period was performed.
# [5] = tested on: HFF; conditions: HFF cells
# [6] = tested on: RVFV; test: microbe, parasite or virus in culture; assay type: cell-based; conditions: Rift Valley fever virus, Vero 76
# [7] = Parallel cytotoxicity assay in A549 cells; assay type: cell-based; conditions: human, parallel to AdV assay
# Description: as §1
# The primary screen was a cytopathic effect (CPE) reduction assay. Briefly, cultures of cells were infected with virus in the presence of test compounds and incubated for 4-7 days (depending on the specific virus/cells). […] Therefore, antiviral effect, or cytoprotection, was observed when compounds prevent virus replication. […] Cytoprotection and compound cytotoxicity were assessed by MTS dye reduction. The percent reduction in viral CPE (antiviral activity) and percent cell viability (cytotoxicity) were determined and reported.
# The primary screen was a cytopathic effect (CPE) reduction assay. […] Cytoprotection and compound cytotoxicity were assessed by MTS (CellTiter®96 Reagent, Promega, Madison Wis.) dye reduction. The percent reduction in viral CPE (antiviral activity) and percent cell viability (cytotoxicity) were determined and reported.
# [8] = tested on: VZV; test: Plaque-reduction assay for VZV; assay type: cell-based, varicella zoster virus; conditions: Human alphaherpesvirus 3, HFF cells
# Description: Plaque-Reduction Assays for HSV-1, HSV-2, VZV and HCMV:
# Monolayers of cells were prepared in six-well plates and incubated at to allow the cells to reach confluency. Media was then aspirated from the wells and of virus was added to each of three wells to yield 20-30 plaques in each well. The virus was allowed to adsorb to the cells for 1 h and the plates were rocked gently every 15 min to redistribute the media. Compounds were diluted in maintenance cell culture media consisting of MEM with Earl's salts supplemented with 2% FBS, L-glutamine, penicillin, and gentamycin. Solutions were added to duplicate wells and the plates were incubated for various times, depending on the virus used. The plaque-reduction assay with HSV-1 strain F was performed in a similar manner but with Vero cells infected one day after plating. For HSV-1 and -2, the monolayers were stained with 1% crystal violet in 20% methanol and the unbound dye removed by washing with dH2O. For assays with HCMV and VZV, the cell monolayer was stained with 1% Neutral Red solution for 4 h then the stain was aspirated and the cells were washed with PBS. For all assays, plaques were enumerated using a stereomicroscope and the concentration of compound that reduced plaque formation by 50% (EC50) was interpolated from the experimental data. […]
# [9] = tested on: RAW cells; test: Conversion of Compound 1 to Triphosphate in RAW Cells
# [10] = tested on: Vero76
# [11] = RAW cells incubated with 0.5 μM Compound 1 for 48 hours
# [12] = RAW cells incubated with 1 μM Compound 1 for 48 hours
# [13] = RAW cells incubated with 5 μM Compound 1 for 48 hours
# [14] = RAW cells incubated with 10 μM Compound 1 for 48 hours
smiles,measurement,setting,value
"Cc1nc(N)c2c(C(N)=O)cn([C@@H]3O[C@H](CO)[C@@H](O)[C@H]3O)c2n1 [Compound 1, 4-amino-7-((2R,3R,4S,5R)-3,4-dihydroxy-5-(hydroxymethyl)tetrahydrofuran-2-yl)-2-methyl-7H-pyrrolo[2,3-d]pyrimidine-5-carboxamide]",pEC50,[1],< 4.00
same,CC50,[2],> 60 µM
same,pEC50,[3],< 4.00
same,CC50,[4],> 100 µM
same,CC50,[5]; parallel to BKV assay,> 60 µM
same,CC50,[5]; parallel to HSV-2 assay,> 60 µM
same,CC50,[5]; parallel to VACV assay,> 60 µM
same,CC50,[5]; parallel to VZV assay,> 60 µM
same,pEC50,[6],< 4.00
same,CC50,[7],> 100 µM
same,pEC50,[8],< 4.22
same,Concentration (ng/1 × 10^6 cells),[9]; [11],0.17 ng/1 × 10^6 cells
same,Concentration (pmol/1 × 10^6 cells),[9]; [11],0.53 pmol/1 × 10^6 cells
same,Concentration (ng/1 × 10^6 cells),[9]; [12],0.13 ng/1 × 10^6 cells
same,Concentration (pmol/1 × 10^6 cells),[9]; [12],0.40 pmol/1 × 10^6 cells
same,Concentration (ng/1 × 10^6 cells),[9]; [13],0.65 ng/1 × 10^6 cells
same,Concentration (pmol/1 × 10^6 cells),[9]; [13],2.01 pmol/1 × 10^6 cells
same,Concentration (ng/1 × 10^6 cells),[9]; [14],1.02 ng/1 × 10^6 cells
same,Concentration (pmol/1 × 10^6 cells),[9]; [14],3.15 pmol/1 × 10^6 cells
same,CC50,[10]; African green monkey,> 100 µM
same,CC50,"[10]; Vero76 cells, parallel to DENV-2 assay",> 100 µM
same,CC50,"[10]; Vero76 cells, parallel to ENTV-71 assay",> 100 µM
same,CC50,"[10]; Vero76 cells, parallel to POV-3 assay",> 100 µM
same,CC50,"[10]; Vero76 cells, parallel to WNV assay",> 100 µM
